Source: patent US10632106B2, “Methods of cancer treatment with 2-(1′H-Indole-3′-carbonyl)-thiazole-4-carboxylic acid methyl ester” (Ariagen, Inc., priority 2009, dated 2020)

Assay: Effects of oral water administration on ITE dosed mice
Assay type: in vivo
Parameters: key to feces appearance: Moderate; Dry
Method: Oral injection of water was initiated at the same day i.p. administration of ITE was started. Daily oral gavage at 10 or 20 ml/kg was performed immediately following daily i.p. injection of ITE or DMSO continuously for the entire duration of the study. Both oral and i.p. injection were accidentally skipped at day 14 due to a mistake of the experimenter(s) and all of the other dosing were executed normally. Bodyweights (individual), food consumed (in group), feces weights (in group), and feces appearance (in group) were recorded every two days. Death of animal(s) and approximate cause of death etc. were also recorded.

[1] = ITE-L 200 mg/kg i.p. + Water-0, day 4
[2] = ITE-L 200 mg/kg i.p. + Water-0, day 6
[3] = ITE-L 200 mg/kg i.p. + Water-0, day 8
[4] = ITE-L 200 mg/kg i.p. + Water-0, day 10
[5] = ITE-L 200 mg/kg i.p. + Water-0, day 12
[6] = ITE-L 200 mg/kg i.p. + Water-0, day 14
[7] = ITE-L 200 mg/kg i.p. + Water-0, day 18 (line r16)
[8] = ITE-L 200 mg/kg i.p. + Water-0, day 18 (line r17)
[9] = ITE-L 200 mg/kg i.p. + Water-0, day 20
[10] = ITE-L 200 mg/kg i.p. + Water-0, day 22
[11] = ITE-L 200 mg/kg i.p. + Water-0, day 24
[12] = ITE-L 200 mg/kg i.p. + Water-0, day 26
[13] = ITE-L 200 mg/kg i.p. + Water-0, day 28
[14] = ITE-L 200 mg/kg i.p. + Water-0, day 30
[15] = ITE-L 200 mg/kg i.p. + Water-0, day 32
[16] = ITE-L 200 mg/kg i.p. + Water-0, day 34
[17] = ITE-L 200 mg/kg i.p. + Water-0, day 36
[18] = ITE-L 200 mg/kg i.p. + Water-H 20 ml/kg, day 4
[19] = ITE-L 200 mg/kg i.p. + Water-H 20 ml/kg, day 6
[20] = ITE-L 200 mg/kg i.p. + Water-H 20 ml/kg, day 8
[21] = ITE-L 200 mg/kg i.p. + Water-H 20 ml/kg, day 10
[22] = ITE-L 200 mg/kg i.p. + Water-H 20 ml/kg, day 12
[23] = ITE-L 200 mg/kg i.p. + Water-H 20 ml/kg, day 14
[24] = ITE-L 200 mg/kg i.p. + Water-H 20 ml/kg, day 18 (line r16)
[25] = ITE-L 200 mg/kg i.p. + Water-H 20 ml/kg, day 18 (line r17)
[26] = ITE-L 200 mg/kg i.p. + Water-H 20 ml/kg, day 20
[27] = ITE-L 200 mg/kg i.p. + Water-H 20 ml/kg, day 22
[28] = ITE-L 200 mg/kg i.p. + Water-H 20 ml/kg, day 24
[29] = ITE-L 200 mg/kg i.p. + Water-H 20 ml/kg, day 26
[30] = ITE-L 200 mg/kg i.p. + Water-H 20 ml/kg, day 28
[31] = ITE-L 200 mg/kg i.p. + Water-H 20 ml/kg, day 30
[32] = ITE-L 200 mg/kg i.p. + Water-H 20 ml/kg, day 32
[33] = ITE-L 200 mg/kg i.p. + Water-H 20 ml/kg, day 34
[34] = ITE-L 200 mg/kg i.p. + Water-H 20 ml/kg, day 36
[35] = ITE-L 200 mg/kg i.p. + Water-L 10 ml/kg, day 4
[36] = ITE-L 200 mg/kg i.p. + Water-L 10 ml/kg, day 6
[37] = ITE-L 200 mg/kg i.p. + Water-L 10 ml/kg, day 8
[38] = ITE-L 200 mg/kg i.p. + Water-L 10 ml/kg, day 10
[39] = ITE-L 200 mg/kg i.p. + Water-L 10 ml/kg, day 12
[40] = ITE-L 200 mg/kg i.p. + Water-L 10 ml/kg, day 14
[41] = ITE-L 200 mg/kg i.p. + Water-L 10 ml/kg, day 18 (line r16)
[42] = ITE-L 200 mg/kg i.p. + Water-L 10 ml/kg, day 18 (line r17)
[43] = ITE-L 200 mg/kg i.p. + Water-L 10 ml/kg, day 20
[44] = ITE-L 200 mg/kg i.p. + Water-L 10 ml/kg, day 22
[45] = ITE-L 200 mg/kg i.p. + Water-L 10 ml/kg, day 24
[46] = ITE-L 200 mg/kg i.p. + Water-L 10 ml/kg, day 26
[47] = ITE-L 200 mg/kg i.p. + Water-L 10 ml/kg, day 28
[48] = ITE-L 200 mg/kg i.p. + Water-L 10 ml/kg, day 30
[49] = ITE-L 200 mg/kg i.p. + Water-L 10 ml/kg, day 32
[50] = ITE-L 200 mg/kg i.p. + Water-L 10 ml/kg, day 34
[51] = ITE-L 200 mg/kg i.p. + Water-L 10 ml/kg, day 36

COC(=O)c1csc(C(=O)c2c[nH]c3ccccc23)n1 [ITE, 2-(1′H-indole-3′-carbonyl)-thiazole-4-carboxylic acid methyl ester]
M: feces appearance [1] | feces appearance [2] | feces appearance [18] | feces appearance [19] | feces appearance [30] | feces appearance [31] | feces appearance [32] | feces appearance [33] | feces appearance [34] | feces appearance [35] | feces appearance [36] | feces appearance [47] | feces appearance [48] | feces appearance [49] | feces appearance [50] | feces appearance [51]
D: feces appearance [3] | feces appearance [4] | feces appearance [5] | feces appearance [6] | feces appearance [7] | feces appearance [8] | feces appearance [9] | feces appearance [10] | feces appearance [11] | feces appearance [12] | feces appearance [13] | feces appearance [14] | feces appearance [15] | feces appearance [16] | feces appearance [17] | feces appearance [20] | feces appearance [21] | feces appearance [22] | feces appearance [23] | feces appearance [24] | feces appearance [25] | feces appearance [26] | feces appearance [27] | feces appearance [28] | feces appearance [29] | feces appearance [37] | feces appearance [38] | feces appearance [39] | feces appearance [40] | feces appearance [41] | feces appearance [42] | feces appearance [43] | feces appearance [44] | feces appearance [45] | feces appearance [46]
1: number of mice that died [13] | number of mice that died [14] | number of mice that died [15] | number of mice that died [16] | number of mice that died [17]
0: number of mice that died [1] | number of mice that died [2] | number of mice that died [3] | number of mice that died [4] | number of mice that died [5] | number of mice that died [6] | number of mice that died [7] | number of mice that died [8] | number of mice that died [9] | number of mice that died [10] | number of mice that died [11] | number of mice that died [12] | number of mice that died [18] | number of mice that died [19] | number of mice that died [20] | number of mice that died [21] | number of mice that died [22] | number of mice that died [23] | number of mice that died [24] | number of mice that died [25] | number of mice that died [26] | number of mice that died [27] | number of mice that died [28] | number of mice that died [29] | number of mice that died [30] | number of mice that died [31] | number of mice that died [32] | number of mice that died [33] | number of mice that died [34] | number of mice that died [35] | number of mice that died [36] | number of mice that died [37] | number of mice that died [38] | number of mice that died [39] | number of mice that died [40] | number of mice that died [41] | number of mice that died [42] | number of mice that died [43] | number of mice that died [44] | number of mice that died [45] | number of mice that died [46] | number of mice that died [47] | number of mice that died [48] | number of mice that died [49] | number of mice that died [50] | number of mice that died [51]
